The values that follow come from patent US9255094B2, “Pyrido[4,3-B]indoles and methods of use” (Medivation Technologies, Inc., priority 2009, dated 2016).

Structures are written as SMILES.

The target in assay [1] is human recombinant serotonin (5-Hydroxytryptamine) 5-HT7 receptor (Homo sapiens, UniProt P34969). The experiment in a line: Serotonin 5-HT7 radioligand binding assay ([3H]LSD). Conditions: compound at 0.1 μM; 5.5 nM [3H]LSD; CHO cells; read-out: Percent Inhibition of ligand binding, Serotonin (0.1 μM) 5-HT7. How it is done:
Compounds of invention were incubated with 5.5 nM [^3H] Lysergic acid diethylamide (LSD) for 2 h at 25° C. […] Receptor proteins were filtered and washed, the filters were then counted to determine [^3H]LSD specifically bound. Compounds were screened at 1 μM or lower, using 1% DMSO as vehicle. Biochemical assay results are presented as the percent inhibition of specific binding in Table 4.

The target of assay [2] is human recombinant histamine H1 receptor (Homo sapiens, UniProt P35367). The experiment in a line: Histamine H1 radioligand binding assay ([3H]Pyrilamine). Conditions: compound at 1 μM, receptor expressed in CHO cells. How it is done: To evaluate in radioligand binding assays the activity of compounds of the invention, human recombinant histamine H1 receptor expressed in Chinese hamster ovary (CHO) cells (De Backer, M. D. et al., Biochem. Biophys. Res. Comm. 197(3):1601, 1993) in a modified Tris-HCl buffer (50 mM Tris-HCl, pH 7.4, 2 mM MgCl2, 100 mM NaCl, 250 mM Sucrose) was used. Compounds of the invention were incubated with 1.2 nM [^3H]Pyrilamine for 180 min at 25° C. Non-specific binding was estimated in the presence of 1 μM pyrilamine Receptor proteins were filtered and washed, the filters were then counted to determine [^3H]Pyrilamine specifically bound. Compounds were screened at 1 μM or lower, using 1% DMSO as vehicle. Biochemical assay results are presented as the percent inhibition of specific binding in Table 2.
human recombinant histamine H1 receptor, sequence (P35367 whole entry): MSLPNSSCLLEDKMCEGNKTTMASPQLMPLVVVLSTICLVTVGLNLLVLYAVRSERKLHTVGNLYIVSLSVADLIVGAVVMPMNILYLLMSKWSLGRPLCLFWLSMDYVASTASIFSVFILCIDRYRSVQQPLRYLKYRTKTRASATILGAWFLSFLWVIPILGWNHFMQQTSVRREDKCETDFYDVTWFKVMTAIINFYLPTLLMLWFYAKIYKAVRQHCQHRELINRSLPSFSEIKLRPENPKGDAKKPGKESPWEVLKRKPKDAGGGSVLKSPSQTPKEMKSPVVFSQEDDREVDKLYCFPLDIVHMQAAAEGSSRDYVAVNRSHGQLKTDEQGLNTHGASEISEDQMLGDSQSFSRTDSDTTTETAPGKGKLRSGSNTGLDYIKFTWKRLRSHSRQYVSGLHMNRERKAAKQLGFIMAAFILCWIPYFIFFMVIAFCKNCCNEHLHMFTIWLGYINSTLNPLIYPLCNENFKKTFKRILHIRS

Assay [3] deals with T1, human recombinant serotonin (5-Hydroxytryptamine) 5-HT6 receptor (Homo sapiens, UniProt P50406).
T1 construct: expressed in transfected cells; host or cells: human HeLa cells
T1 sequence (P50406 whole entry): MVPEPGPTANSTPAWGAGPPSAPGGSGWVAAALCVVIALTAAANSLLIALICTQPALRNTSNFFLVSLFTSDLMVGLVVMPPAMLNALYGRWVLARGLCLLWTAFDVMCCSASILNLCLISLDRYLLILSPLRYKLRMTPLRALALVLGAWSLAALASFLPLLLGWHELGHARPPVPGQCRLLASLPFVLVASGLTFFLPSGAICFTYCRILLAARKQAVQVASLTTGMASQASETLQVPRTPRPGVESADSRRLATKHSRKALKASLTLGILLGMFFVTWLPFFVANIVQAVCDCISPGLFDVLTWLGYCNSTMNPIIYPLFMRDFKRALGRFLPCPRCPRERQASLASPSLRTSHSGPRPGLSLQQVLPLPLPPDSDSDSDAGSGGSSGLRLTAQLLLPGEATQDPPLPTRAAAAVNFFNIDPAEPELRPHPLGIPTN
The experiment in a line: Serotonin 5-HT6 radioligand binding assay ([3H]LSD). Conditions: compound at 0.1 μM, HeLa cells, read-out: Percent Inhibition of ligand binding, Serotonin (0.1 μM) 5-HT6. The procedure:
Compounds of the invention were incubated with 1.5 nM [3H]Lysergic acid diethylamide (LSD) for 120 min at 37° C. […] Receptor proteins were filtered and washed, the filters were then counted to determine [3H]LSD specifically bound. Compounds were screened at 1 μM or lower, using 1% DMSO as vehicle. Biochemical assay results are presented as the percent inhibition of specific binding in Table 4.

Assay [4] deals with T2, human recombinant serotonin (5-Hydroxytryptamine) 5-HT2A receptor (Homo sapiens, UniProt P28223).
T2 construct: expressed in transfected cells; host or cells: Chinese hamster ovary (CHO-K1) cells
T2 sequence (P28223 whole entry): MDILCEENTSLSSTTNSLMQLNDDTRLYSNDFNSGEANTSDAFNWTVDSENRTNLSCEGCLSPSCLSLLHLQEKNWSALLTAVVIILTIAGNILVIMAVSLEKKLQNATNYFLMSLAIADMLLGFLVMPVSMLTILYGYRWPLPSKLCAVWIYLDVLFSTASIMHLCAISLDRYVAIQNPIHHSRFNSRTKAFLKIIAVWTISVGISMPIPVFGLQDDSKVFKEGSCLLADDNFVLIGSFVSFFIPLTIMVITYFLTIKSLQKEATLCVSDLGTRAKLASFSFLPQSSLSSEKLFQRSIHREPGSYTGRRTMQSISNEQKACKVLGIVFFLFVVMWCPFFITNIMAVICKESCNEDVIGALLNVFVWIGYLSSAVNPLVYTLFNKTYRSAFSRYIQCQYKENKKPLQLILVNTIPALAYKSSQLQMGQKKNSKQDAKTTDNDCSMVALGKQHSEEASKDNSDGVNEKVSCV
The experiment in a line: Serotonin 5-HT2A radioligand binding assay ([3H]Ketanserin). Conditions: 0.5 nM [3H]Ketanserin, CHO-K1 cells; for inhibition at 0.1 µM: compound at 0.1 μM, read-out: Percent Inhibition of ligand binding, Serotonin (0.1 μM) 5-HT2A; for inhibition at 1 µM: compound at 1 μM, read-out: Percent Inhibition of ligand binding, Serotonin (1 μM) 5-HT2A. The procedure:
Compounds of the invention were incubated with 0.5 nM [^3H]Ketanserin for 60 min at 25° C. Non-specific binding was estimated in the presence of 1 μM Mianserin. Receptor proteins were filtered and washed, the filters were then counted to determine [^3H]Ketanserin specifically bound. Compounds were screened at 1 μM or lower, using 1% DMSO as vehicle. Biochemical assay results are presented as the percent inhibition of specific binding in Table 4.

Assay [5] addresses human recombinant dopamine D2L receptor (Homo sapiens, UniProt P14416). The experiment in a line: Dopamine D2L radioligand binding assay ([3H]Spiperone). Conditions: compound at 1 μM, 0.16 nM [3H]Spiperone, CHO cells, read-out: Percent Inhibition of ligand binding, Dopamine (1μM). How it is done:
Compounds of the invention were incubated with 0.16 nM [^3H]Spiperone for 120 min at 25° C. Non-specific binding was estimated in the presence of 10 μM Haloperidol. Receptor proteins were filtered and washed, the filters were then counted to determine [^3H]Spiperone specifically bound. Compounds were screened at 1 μM or lower, using 1% DMSO as vehicle. Biochemical assay results are presented as the percent inhibition of specific binding in Table 3.

For assay [6], the target named is T3, human recombinant serotonin (5-Hydroxytryptamine) 5-HT2C receptor (Homo sapiens, UniProt P28335).
T3 construct: expressed in transfected cells; host or cells: Chinese hamster ovary (CHO-K1) cells
T3 sequence (P28335 33-458): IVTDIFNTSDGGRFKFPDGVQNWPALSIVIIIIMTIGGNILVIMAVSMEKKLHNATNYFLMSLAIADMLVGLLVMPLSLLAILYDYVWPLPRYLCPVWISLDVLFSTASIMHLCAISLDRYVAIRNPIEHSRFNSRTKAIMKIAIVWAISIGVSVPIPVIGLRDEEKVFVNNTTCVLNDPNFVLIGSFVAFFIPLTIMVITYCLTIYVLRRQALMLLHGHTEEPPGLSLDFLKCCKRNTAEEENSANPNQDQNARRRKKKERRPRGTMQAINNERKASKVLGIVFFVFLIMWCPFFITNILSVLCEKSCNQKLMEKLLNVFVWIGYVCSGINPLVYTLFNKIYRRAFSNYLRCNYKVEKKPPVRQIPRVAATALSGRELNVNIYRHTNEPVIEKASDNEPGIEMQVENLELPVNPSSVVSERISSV
The experiment in a line: Serotonin 5-HT2C radioligand binding assay ([3H]Mesulergine). Conditions: compound at 0.1 μM; 1 nM [3H]Mesulergine; CHO-K1 cells; read-out: Percent Inhibition of ligand binding, Serotonin (0.1 μM) 5-HT2C. How it is done:
Compounds of the invention were incubated with 1 nM [^3H]Mesulergine for 60 min at 25° C. Non-specific binding was estimated in the presence of 1 μM Mianserin. Receptor proteins were filtered and washed, the filters were then counted to determine [^3H]Mesulergine specifically bound. Compounds were screened at 1 μM or lower, using 1% DMSO as vehicle. Biochemical assay results are presented as the percent inhibition of specific binding in Table 4.

human recombinant dopamine D2L receptor, sequence (P14416 whole entry): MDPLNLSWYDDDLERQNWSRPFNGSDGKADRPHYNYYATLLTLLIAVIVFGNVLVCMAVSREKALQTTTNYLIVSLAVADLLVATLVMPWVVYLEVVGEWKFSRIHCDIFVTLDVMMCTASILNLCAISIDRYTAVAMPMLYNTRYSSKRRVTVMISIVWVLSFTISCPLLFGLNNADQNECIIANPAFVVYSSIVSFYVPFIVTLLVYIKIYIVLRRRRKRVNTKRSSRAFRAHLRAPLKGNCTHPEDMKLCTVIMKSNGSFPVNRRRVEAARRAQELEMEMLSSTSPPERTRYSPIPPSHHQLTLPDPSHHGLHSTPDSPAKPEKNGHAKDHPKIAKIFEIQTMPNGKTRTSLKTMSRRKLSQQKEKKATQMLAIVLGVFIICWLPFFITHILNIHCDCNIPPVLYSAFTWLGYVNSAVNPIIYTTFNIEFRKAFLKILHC
human recombinant serotonin (5-Hydroxytryptamine) 5-HT7 receptor, sequence (P34969 whole entry): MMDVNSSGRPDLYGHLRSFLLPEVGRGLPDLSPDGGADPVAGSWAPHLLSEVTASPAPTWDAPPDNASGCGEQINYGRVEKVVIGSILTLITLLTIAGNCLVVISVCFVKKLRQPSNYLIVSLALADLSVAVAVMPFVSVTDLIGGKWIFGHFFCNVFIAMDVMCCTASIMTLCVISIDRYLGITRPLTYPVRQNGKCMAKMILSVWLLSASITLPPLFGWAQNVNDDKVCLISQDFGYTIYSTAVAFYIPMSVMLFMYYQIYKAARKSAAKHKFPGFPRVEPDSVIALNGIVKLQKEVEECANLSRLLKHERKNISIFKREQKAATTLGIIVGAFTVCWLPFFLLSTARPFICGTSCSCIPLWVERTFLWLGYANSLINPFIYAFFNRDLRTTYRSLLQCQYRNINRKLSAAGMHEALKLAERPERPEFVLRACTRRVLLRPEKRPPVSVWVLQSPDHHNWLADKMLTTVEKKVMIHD

As usually defined, the inhibition is the relative decrease from the control value, in per cent. For `Cc1ccc2c(c1)c1c(n2CC(C)c2ccc(C)nc2)CC(C)N(C)C1` (stereo not shown) [Compound 1-47, 2,3,8-trimethyl-5-(2-(6-methylpyridin-3-yl)propyl)-2,3,4,5-tetrahydro-1H-pyrido[4,3-b]indole], the inhibition at 0.1 µM in assay [1] was determined as 85%; in assay [3], 19%; in assay [4] it was 46%; in assay [6], 70%. Moreover, the results for the inhibition at 1 µM in assay [2] and in assay [5] were 91% and 12%, respectively.
Turning to `Cc1ccc2c(c1)c1c(n2CCc2ccc(C(F)(F)F)nc2)C(C)CN(C)C1` (stereo not shown) [Compound 1-51, 2,4,8-trimethyl-5-(2-(6-(trifluoromethyl)pyridin-3-yl)ethyl)-2,3,4,5-tetrahydro-1H-pyrido[4,3-b]indole], the inhibition at 0.1 µM in assay [1] came to 15%; in assay [3] it was 4%; in assay [4], 77%; in assay [6], 92%. Also, the inhibition at 1 µM in assay [2] was 65%; in assay [5] it was 14%.
As to `Cc1ccc2c(c1)c1c(n2CC(O)(c2ccc(F)cc2)C2CCCCC2)CCN(C)C1` (stereo not shown) [Compound 1-1, 1-cyclohexyl-2-(2,8-dimethyl-3,4-dihydro-1H-pyrido[4,3-b]indol-5(2H)-yl)-1-(4-fluorophenyl)ethanol], the inhibition at 1 µM in assay [2] was determined as 22%; in assay [4], 97%; in assay [5], 13%. Moreover, the inhibition at 0.1 µM in assay [4] was found to be 60%.
Regarding `CC(C)c1ccc2c3c(n(CC(C)(O)c4ccncc4)c2c1)CCN(C)C3` (stereo not shown) [Compound 1-32, 1-(7-isopropyl-2-methyl-3,4-dihydro-1H-pyrido[4,3-b]indol-5(2H)-yl)-2-(pyridin-4-yl)propan-2-ol], the inhibition at 0.1 µM is 31% in assay [1], -1% in assay [3], -6% in assay [4] and -6% in assay [6].
With `Cc1ccc2c(c1)c1c(n2CCc2ccc(C)nc2)CC(C)N(C)C1` (stereo not shown) [Compound 1-44, 2,3,8-trimethyl-5-(2-(6-methylpyridin-3-yl)ethyl)-2,3,4,5-tetrahydro-1H-pyrido[4,3-b]indole], the inhibition at 0.1 µM in assay [1] amounted to 74%; in assay [3], 46%; in assay [4] it was 16%; in assay [6], 45%. The inhibition at 1 µM in assay [2] is 100%; in assay [5], 8%.
As to `Cc1ccc2c(c1)c1c(n2CC(C)(O)c2ccncc2)CCN(C2CC2)C1` (stereo not shown) [Compound 1-30, 1-(2-cyclopropyl-8-methyl-3,4-dihydro-1H-pyrido[4,3-b]indol-5(2H)-yl)-2-(pyridin-4-yl)propan-2-ol], the inhibition at 0.1 µM was 6% in assay [1], 1% in assay [3], 14% in assay [4] and 4% in assay [6].
On to `Cc1ccc2c(c1)c1c(n2CC2(c3ccncc3)CC2)CCN(C)C1` [Compound 1-50, 2,8-dimethyl-5-((1-(pyridin-4-yl)cyclopropyl)methyl)-2,3,4,5-tetrahydro-1H-pyrido[4,3-b]indole], for which the inhibition at 0.1 µM was 95% in assay [1], 30% in assay [3], 77% in assay [4] and -1% in assay [6]. Also, the inhibition at 1 µM turned out to be 97% in assay [2] and 47% in assay [5].
Take `COc1cccc2c3c(n(CC(C)(O)c4ccncc4)c12)CCN(C)C3` (stereo not shown) [Compound 1-31, 1-(6-methoxy-2-methyl-3,4-dihydro-1H-pyrido[4,3-b]indol-5(2H)-yl)-2-(pyridin-4-yl)propan-2-ol]: the inhibition at 0.1 µM was -1% in assay [1], -7% in assay [3], 8% in assay [4] and 5% in assay [6].
For `CN1CCc2c(c3cc(Cl)ccc3n2CC(C)(O)c2ccncn2)C1` (stereo not shown) [Compound 1-26, 1-(8-chloro-2-methyl-3,4-dihydro-1H-pyrido[4,3-b]indol-5(2H)-yl)-2-(pyrimidin-4-yl)propan-2-ol], the inhibition at 0.1 µM in assay [4] was determined as 23%.
Turning to `CCC(O)(Cn1c2c(c3cc(Cl)ccc31)CN(C)CC2)c1ccncc1` (stereo not shown) [Compound 1-23, 1-(8-chloro-2-methyl-3,4-dihydro-1H-pyrido[4,3-b]indol-5(2H)-yl)-2-(pyridin-4-yl)butan-2-ol], in assay [4], the inhibition at 0.1 µM was 62%.
On to `CN1CCc2c(c3c(Cl)c(Cl)ccc3n2CC(C)(O)c2ccncc2)C1` (stereo not shown) [Compound 1-18, 1-(8,9-dichloro-2-methyl-3,4-dihydro-1H-pyrido[4,3-b]indol-5(2H)-yl)-2-(pyridin-4-yl)propan-2-ol], for which, in assay [4], the inhibition at 1 µM was 71%.
As for `CCC(O)(Cn1c2c(c3cc(C)ccc31)CN(C)CC2)c1ccncc1` (stereo not shown) [Compound 1-24, 1-(2,8-dimethyl-3,4-dihydro-1H-pyrido[4,3-b]indol-5(2H)-yl)-2-(pyridin-4-yl)butan-2-ol], the inhibition at 0.1 µM was found to be 12% in assay [1], 10% in assay [3], 36% in assay [4] and 8% in assay [6]. For the same molecule, in assay [5], the inhibition at 1 µM was determined as 9%.
For `Cc1ccc2c(c1)c1c(n2CC(C)(O)c2ccncc2)CCN(CC(F)(F)F)C1` (stereo not shown) [Compound 1-29, 1-(8-methyl-2-(2,2,2-trifluoroethyl)-3,4-dihydro-1H-pyrido[4,3-b]indol-5(2H)-yl)-2-(pyridin-4-yl)propan-2-ol], the inhibition at 0.1 µM was found to be 2% in assay [1], 2% in assay [3], 11% in assay [4] and 3% in assay [6].
For the molecule `Cc1ccc2c(c1)c1c(n2CC(C)(O)c2ccncn2)CCN(C)C1` (stereo not shown) [Compound 1-25, 1-(2,8-dimethyl-3,4-dihydro-1H-pyrido[4,3-b]indol-5(2H)-yl)-2-(pyrimidin-4-yl)propan-2-ol], the inhibition at 0.1 µM in assay [4] is 17%.
On to `Cc1ccc2c(c1)c1c(n2CC(C)(O)c2ccncc2)CC(C)N(C)C1` (stereo not shown) [Compound 1-33, 2-(pyridin-4-yl)-1-(2,3,8-trimethyl-3,4-dihydro-1H-pyrido[4,3-b]indol-5(2H)-yl)propan-2-ol], for which the inhibition at 0.1 µM in assay [1] is 40%; in assay [3] it was -1%; in assay [4], 43%; in assay [6], 56%.
`Cc1ccc2c(c1)c1c(n2CC(C)(O)c2ccncc2)CCN(C)C1` (stereo not shown) [Compound 1-52, 1-(1,2,3,4-tetrahydro-2,8-dimethylpyrido[4,3-b]indol-5-yl)-2-(pyridin-4-yl)propan-2-ol]: in assay [4], the inhibition at 1 µM was found to be 88%.
